Data on 25 compounds can be found in patent US10844062B2, “Pyridine derivative inhibiting RAF kinase and vascular endothelial growth factor receptor, method for preparing same, pharmaceutical composition containing same, and use thereof” (SAMJIN PHARMACEUTICAL CO., LTD., priority 2016, dated 2020).

The structures appear in SMILES notation.

This test concerns LS513 KRAS G12V (colon). As to the kind of experiment: MTT assay. Format: cell-based. The following applies: Homo sapiens, LS-513, 72 h, Table 4; 3 days incubation; read-out: MTT assay IC50 KRAS mutant (Colon) LS513 KRAS G12V. The protocol: MTT assay is frequently used for the purpose of primary screening for the sensitivity of anticancer agents and to examine cytotoxicity. When cancer cells are treated with varying concentrations of any anticancer agent for a predetermined time to induce death of the cells and are then treated with MTT, and when the formation of formazan is measured, the concentration of the anticancer agent, at which about 50% of the cells survive, can be determined. This concentration value is called IC50. IC50 values differ between drugs, and thus can be characteristic of the drugs. Using this method, the effects of anticancer agents against cell proliferation can be quantitatively compared. Thus, in order to measure the cytotoxicity of samples, MTT assay was performed using CellTiter 96 Non-radioactive Cell Proliferation Assay Kit (Promega).
Cells in a cell suspension were counted with a hematocytometer, and then 200 μL of the cell suspension was added to each well of a 96 well plate at a desired concentration (cell amount determined depending on a cell line). After cell seeding, the cells were incubated in a CO2 incubator at 37° C. overnight. After one day of cell stabilization, the cells were treated with desired concentrations of the compounds. The cells were incubated in a CO2 incubator at 37° C. for 3 days, and then the sample was removed, and 200 μL of MTT solution was added to each well. After 2 hours of incubation, the MTT dilution was carefully shaken, and 200 μL of DMSO was added to each well, followed by shaking with a plate shaker for 60 minutes.
For the compound `COc1ccc(C(=O)Nc2ccc(F)c(Nc3ncccc3-c3ncnc4[nH]cnc34)c2F)cc1C(F)(F)F` [Example 38, N-(3-(3-(9H-Purin-6-Yl)Pyridin-2-Ylamino)-2,4-Difluorophenyl)-4-Methoxy-3-(Trifluoromethyl)Benzamide], the concentration for half-maximal inhibition (IC50) came to 1860 nM.

As for `CC(C)(C#N)c1cccc(C(=O)Nc2ccc(Nc3ncccc3-c3ncnc4[nH]cnc34)c(F)c2)c1` [Example 39, N-(4-(3-(9H-Purin-6-Yl)Pyridin-2-Ylamino)-3-Fluorophenyl)-3-(2-Cyanopropan-2-Yl)Benzamide], the half-inhibitory concentration (IC50) was > 10000 nM. Turning to `O=C(Nc1ccc(F)c(Nc2ncccc2-c2ncnc3[nH]cnc23)c1F)c1cc([N+](=O)[O-])cc(C(F)(F)F)c1` [Example 40, N-(3-(3-(9H-Purin-6-Yl)Pyridin-2-Ylamino)-2,4-Difluorophenyl)-3-Nitro-5-(Trifluoromethyl)Benzamide], the IC50 stood at 163 nM. In the case of `CC(C)(C#N)c1cc(C(=O)Nc2ccc(F)c(Nc3ncccc3-c3ncnc4[nH]cnc34)c2F)ccc1Cl` [Example 41, N-(3-(3-(9H-Purin-6-Yl)Pyridin-2-Ylamino)-2,4-Difluorophenyl)-4-Chloro-3-(2-Cyanopropan-2-Yl)Benzamide] it was 475 nM; in that of `CC(C)(C#N)c1cccc(C(=O)Nc2ccc(F)c(Nc3ncccc3-c3ncnc4[nH]cnc34)c2F)c1Cl` [Example 42, N-(3-(3-(9H-Purin-6-Yl)Pyridin-2-Ylamino)-2,4-Difluorophenyl)-2-Chloro-3-(2-Cyanopropan-2-Yl)Benzamide], 1330 nM; in that of `CC(C)(C#N)c1cc(F)cc(C(=O)Nc2ccc(F)c(Nc3ncccc3-c3ncnc4[nH]cnc34)c2F)c1` [Example 43, N-(3-(3-(9H-Purin-6-Yl)Pyridin-2-Ylamino)-2,4-Difluorophenyl)-3-(2-Cyanopropan-2-Yl)-5-Fluorobenzamide], 402 nM.

Turning to `CC(C)(C#N)c1cc(C(=O)Nc2ccc(F)c(Nc3ncccc3-c3ncnc4[nH]cnc34)c2F)cc(F)c1F` [Example 44, N-(3-(3-(9H-Purin-6-Yl)Pyridin-2-Ylamino)-2,4-Difluorophenyl)-3-(2-Cyanopropan-2-Yl)-4,5-Difluorobenzamide], the IC50 was found to be 1320 nM. Next, `O=C(Nc1ccc(F)c(Nc2ncccc2-c2ncnc3[nH]cnc23)c1F)c1cccc(Cl)c1` [Example 45, N-(3-(3-(9H-Purin-6-Yl)Pyridin-2-Ylamino)-2,4-Difluorophenyl)-3-Chlorobenzamide]: > 10000 nM; `CN(C)c1cccc(C(=O)Nc2ccc(F)c(Nc3ncccc3-c3ncnc4[nH]cnc34)c2F)c1` [Example 46, N-(3-(3-(9H-Purin-6-Yl)Pyridin-2-Ylamino)-2,4-Difluorophenyl)-3-(Dimethylamino)Benzamide]: 7090 nM; `Cc1cccc(C(=O)Nc2ccc(F)c(Nc3ncccc3-c3ncnc4[nH]cnc34)c2F)c1` [Example 47, N-(3-(3-(9H-Purin-6-Yl)Pyridin-2-Ylamino)-2,4-Difluorophenyl)-3-Methylbenzamide]: > 10000 nM. In the case of `O=C(Nc1cccc(Nc2ncccc2-c2ncnc3[nH]cnc23)c1)c1cccc(Cl)c1` [Example 48, N-(3-(3-(9H-Purin-6-Yl)Pyridin-2-Ylamino)Phenyl)-3-Chlorobenzamide] it was 2480 nM; in that of `CC(C)(C#N)c1cccc(C(=O)Nc2ccc(F)c(Nc3ncccc3-c3ncnc4[nH]cnc34)c2)c1` [Example 49, N-(3-(3-(9H-Purin-6-Yl)Pyridin-2-Ylamino)-4-Fluorophenyl)-3-(2-Cyanopropan-2-Yl)Benzamide], 192 nM; in that of `O=C(Nc1ccc(F)c(Nc2ncccc2-c2ncnc3[nH]cnc23)c1)c1cccc(C(F)(F)F)c1` [Example 50, N-(3-(3-(9H-Purin-6-Yl)Pyridin-2-Ylamino)-4-Fluorophenyl)-3-(Trifluoromethyl)Benzamide], 221 nM.

Regarding `O=C(Nc1cccc(Nc2ncccc2-c2ncnc3[nH]cnc23)c1)c1cccc(C(F)(F)F)c1` [Example 51, N-(3-(3-(9H-Purin-6-Yl)Pyridin-2-Ylamino)Phenyl)-3-(Trifluoromethyl)Benzamide], the IC50 was 5670 nM. In the case of `O=C(Nc1ccc(F)c(Nc2ncccc2-c2ncnc3[nH]cnc23)c1F)c1ccc([N+](=O)[O-])cc1` [Example 52, N-(3-(3-(9H-Purin-6-Yl)Pyridin-2-Ylamino)-2,4-Difluorophenyl)-4-Nitrobenzamide], the IC50 is > 10000 nM. In the case of `Nc1cccc(C(=O)Nc2ccc(F)c(Nc3ncccc3-c3ncnc4[nH]cnc34)c2F)c1` [Example 54, N-(3-(3-(9H-Purin-6-Yl)Pyridin-2-Ylamino)-2,4-Difluorophenyl)-3-Aminobenzamide], the IC50 was > 10000 nM. For `COC(=O)Nc1cccc(C(=O)Nc2ccc(F)c(Nc3ncccc3-c3ncnc4[nH]cnc34)c2F)c1` [Example 55, Methyl 3-(3-(3-(9H-Purin-6-Yl)Pyridin-2-Ylamino)-2,4-Difluorophenylcarbamoyl)Phenylcarbamate], the IC50 is > 10000 nM. In the case of `O=C(Nc1ccc(F)c(Nc2ncccc2-c2ncnc3[nH]cnc23)c1F)c1cnccn1` [Example 56, N-(3-(3-(9H-Purin-6-Yl)Pyridin-2-Ylamino)-2,4-Difluorophenyl)Pyrazine-2-Carboxamide] it was > 10000 nM. Next, `O=C(Nc1ccc(F)c(Nc2ncccc2-c2ncnc3[nH]cnc23)c1F)c1ccccc1` [Example 57, N-(3-(3-(9H-Purin-6-Yl)Pyridin-2-Ylamino)-2,4-Difluorophenyl)Benzamide]: > 10000 nM; `O=C(Nc1ccc(F)c(Nc2ncccc2-c2ncnc3[nH]cnc23)c1F)c1cc(C(F)(F)F)cc(C(F)(F)F)c1` [Example 58, N-2,4-Difluoro-3-[3-(9H-Purin-6-Yl)Pyridin-2-Ylamino)-Phenyl-3,5-Bistrifluoromethylbenzamide]: 407 nM. Next, `O=C(Nc1cc(Nc2ncccc2-c2ncnc3[nH]cnc23)ccc1F)c1ccc(Cl)c(C(F)(F)F)c1` [Example 61, 4-Chloro-N-2-Fluoro-5-[3-(9H-Purin-6-Yl)Pyridin-2-Ylamino)Phenyl-3-(Trifluoromethyl)Benzamide]: 439 nM; `O=C(Nc1cc(Nc2ncccc2-c2ncnc3[nH]cnc23)ccc1F)c1cc([N+](=O)[O-])cc(C(F)(F)F)c1` [Example 62, N-2-Fluoro-5-[3-(9H-Purin-6-Yl)Pyridin-2-Ylamino)Phenyl-3-Nitro-5-(Trifluoromethyl)Benzamide]: 702 nM; `Cc1cccc(C(=O)Nc2cc(Nc3ncccc3-c3ncnc4[nH]cnc34)ccc2F)n1` [Example 64, N-2-Fluoro-5-[3-(9H-Purin-6-Yl)Pyridin-2-Ylamino)Phenyl-(6-Methylpyridin-2-Yl)Benzamide]: 300 nM. `O=C(Nc1cc(Nc2ncccc2-c2ncnc3[nH]cnc23)ccc1Cl)c1cccc(C(F)(F)F)c1` [Example 66, N-2-Chloro-5-[3-(9H-Purin-6-Yl)Pyridin-2-Ylamino)Phenyl-3-Trifluoromethylbenzamide]: the IC50 was 135 nM. Next, `O=C(Nc1cc(Nc2ncccc2-c2ncnc3[nH]cnc23)ccc1Cl)c1cc(F)cc(C(F)(F)F)c1` [Example 67, N-2-Chloro-5-[3-(9H-Purin-6-Yl)Pyridin-2-Ylamino)Phenyl-3-Fluoro-5-Trifluoromethylbenzamide]: 6590 nM.
